# From US20130012709A1, “NOVEL INHIBITORS OF STEAROYL-CoA-DESATURASE-1 AND THEIR USES” (CENTRE NATIONAL DE LA RECHERCHE SCIENTIFIQUE, priority 2009, published 2013)
# Read-outs that look alike come from different tables or passages of the source.
# Tests used:
# LNCaP cells [1] = assay: Proliferation by BrDU incorporation; type: cell-based, human; conditions: 25 μM, 48 h of treatment
# Procedure: (§2) LNCaP and C4-2 cells grown on coverslips were incubated for 4 hours with BrdU (100 μM final) at 24 hours and 48 hours following SCD-1 knock-down. Cells were then fixed and permeabilized with cold methanol for 10 min at −20° C. After 3 washes with PBS, DNA was denaturated with 4NHCL for 10 min at RT, and cells were incubated with blocking buffer (PBS-1% BSA). BrDU was then detected with anti-BrDU monoclonal antibody 1:50 (Dako, Carpinteria, Calif.) for 1 hour at 37° C. After 3 washes with PBS, cells were incubated with an FITC-conjugated anti-mouse secondary antibody 1:150 (Jackson Immunoresearch) for 30 min at 37° C., and slides were mounted in mowiol.
# C4-2 cells [2] = test system: C4-2 cells
# Procedure: (§3) After 48 h, medium was removed and 250 μl of a 5 mg/ml MTT (Sigma, St Louis, Mo., USA) solution in PBS was added to each well. After 4 h incubation at 37° C., the MTT solution was removed, 200 μl of DMSO (Sigma) was added and cells were incubated for 5 min. Two hundred microliters of each samples was distributed in 96-well plates for an optical density reading at 540 nm.
# C4-2 cells [3] = assay: Proliferation by BrDU incorporation; conditions: 25 μM, 48 h of treatment
# Procedure: as §2
# C4-2 cells [4] = assay: Flow cytometry analysis of cell cycle; type: cell-based, human; conditions: 25 μM, 48 h; untreated cells 22
# Procedure: (§1) Cells were then rinsed in PBS, pelleted at 400 g for 5 min and maintained on ice for 20 min before resuspension in a […] propidium iodide (Sigma) solution. Cells were kept overnight at 4° C. and the percentages of cells in G1, S and G2-M phases of the cell cycle were measured with a Coulter Epics XL™ flow cytometer (Becton Dickinson) using 488-nm laser excitation. For apoptosis experiment, MEFs were treated with the tested compound at 25 μM for 24 h, then rinced in PBS, pelleted at 400 g for 5 min and stained with annexinV-FITC (Roche Diagnostics, Meylan, France) for 15 min at 4° C. The percentage of annexin positive cells was immediately analysed using 488-nm laser excitation.
# LNCaP cells [5] = assay: Flow cytometry analysis of cell cycle; type: cell-based, human; conditions: 25 μM, 48 h; untreated cells 20
# Procedure: as §1
# C4-2 cells [6] = assay: MTT assay (cell viability); conditions: 48 h
# Procedure: as §3
SMILES,% Inhibition of proliferation at 25 μM (BrDU) on LNCaP (LNCaP cells [1]) [%],% Inhibition of proliferation at 25 μM (BrDU) on C4-2 (C4-2 cells [3]) [%],further results
"COc1ccc(Br)c(C(=O)N2CCN(S(=O)(=O)c3cccc(C(F)(F)F)c3)CC2)c1 [Example 7, 1N-[(2-bromo-5-methoxybenzoyl)]-4N-[(3-trifluoromethylphenyl)sulfonyl]piperazine]",16.7,31.6 ± 7.61,Viable C4-2 cells at 25 μM (% of control) (C4-2 cells [2]): 44 % of control
"COc1ccc(Br)c(C(=O)N2CCN(S(=O)(=O)c3ccc(C(F)(F)F)cc3)CC2)c1 [Example 3, 1N-[(2-bromo-5-methoxybenzoyl)]-4N-[(4-trifluoromethylphenyl)sulfonyl]piperazine]",,65.8 ± 6.4,% C4-2 cells in phase S at 25 μM (C4-2 cells [4]): 2.8%; % LNCaP cells in phase S at 25 μM (LNCaP cells [5]): 10%
"COc1ccc(Br)c(C(=O)N2CCN(S(=O)(=O)c3ccc([N+](=O)[O-])cc3)CC2)c1 [Example 6, 1N-[(2-bromo-5-methoxybenzoyl)]-4N-[(4-nitrophenyl)sulfonyl]piperazine]",,0,Viable C4-2 cells at 25 μM (% of control) (C4-2 cells [6]): 42 % of control; % C4-2 cells in phase S at 25 μM (C4-2 cells [4]): 19.8%; % LNCaP cells in phase S at 25 μM (LNCaP cells [5]): 15%
"COc1ccc(Br)c(C(=O)N2CCN(S(=O)(=O)c3cccs3)CC2)c1 [Example 21, 1N-[(2-bromo-5-methoxybenzoyl)]-4N-[(2-thiophene)sulfonyl]piperazine]",,58.3 ± 19.9,
"COc1ccc(Br)c(C(=O)N2CCN(S(=O)(=O)c3ccccc3F)CC2)c1 [Example 13, 1N-[(2-bromo-5-methoxybenzoyl)]-4N-[(2-fluorophenyl)sulfonyl]piperazine]",27.1,55.6 ± 3.1,Viable C4-2 cells at 25 μM (% of control) (C4-2 cells [2]): 56 % of control
"COc1ccc(C(=O)N2CCN(S(=O)(=O)c3ccc(F)cc3F)CC2)cc1Br [Example 26, 1N-[(3-bromo-4-methoxybenzoyl)]-4-N-[(2,4-difluorophenyl)sulfonyl]piperazine]",,68.2 ± 18.2,
"COc1ccc(Br)cc1C(=O)N1CCN(S(=O)(=O)c2ccc(F)cc2F)CC1 [Example 27, 1N-[(2-methoxy-5-bromobenzoyl)]-4-N-[(2,4-difluorophenyl)sulfonyl]piperazine]",,26.2 ± 6.2,
"COc1ccc(Br)c(C(=O)N2CCN(S(=O)(=O)c3ccccc3)CC2)c1 [Example 1, 1N-[(2-bromo-5-methoxybenzoyl)]-4N-[(phenyl)sulfonyl]piperazine]",,22.7 ± 11.2,Viable C4-2 cells at 25 μM (% of control) (C4-2 cells [6]): 45 % of control; % C4-2 cells in phase S at 25 μM (C4-2 cells [4]): 20.1%; % LNCaP cells in phase S at 25 μM (LNCaP cells [5]): 18%
"COc1ccc(Br)c(C(=O)N2CCN(S(=O)(=O)c3ccc(-c4ccccc4)cc3)CC2)c1 [Example 9, 1N-[(2-bromo-5-methoxybenzoyl)]-4N-[(4-biphenyl)sulfonyl]piperazine]",48.3,60.5 ± 5.7,Viable C4-2 cells at 25 μM (% of control) (C4-2 cells [6]): 90 % of control
"COc1ccc(Br)c(C(=O)N2CCN(S(=O)(=O)c3ccsc3)CC2)c1 [Example 22, 1N-[(2-bromo-5-methoxybenzoyl)]-4N-[(3-thiophene)sulfonyl]piperazine]",,28 ± 2.6,
"COc1ccc(Br)c(C(=O)N2CCN(S(=O)(=O)c3ccc(C(C)=O)cc3)CC2)c1 [Example 4, 1N-[(2-bromo-5-methoxybenzoyl)]-4N-[(4-acetylphenyl)sulfonyl]piperazine]",,36 ± 5.4,% C4-2 cells in phase S at 25 μM (C4-2 cells [4]): 19.7%; % LNCaP cells in phase S at 25 μM (LNCaP cells [5]): 18%
"COc1ccc(Br)c(C(=O)N2CCN(S(=O)(=O)c3ccc(Cl)cc3)CC2)c1 [Example 18, 1N-[(2-bromo-5-methoxybenzoyl)]-4N-[(4-chlorophenyl)sulfonyl]piperazine]",49.7,38.1 ± 7.1,Viable C4-2 cells at 25 μM (% of control) (C4-2 cells [6]): 59 % of control
"COc1ccccc1C(=O)N1CCN(S(=O)(=O)c2ccc(F)cc2F)CC1 [Example 32, 1N-[(2-methoxybenzoyl)]-4-N-[(2,4-difluorophenyl)sulfonyl]piperazine]",,0,
"COc1ccc(Br)c(C(=O)N2CCN(S(=O)(=O)c3cn(C)cn3)CC2)c1 [Example 25, 1N-[(2-bromo-5-methoxybenzoyl)]-4N-[(1-methyl-1H-imidazole)sulfonyl]piperazine]",,0,
"CCCc1ccc(S(=O)(=O)N2CCN(C(=O)c3cc(OC)ccc3Br)CC2)cc1 [Example 5, 1N-[(2-bromo-5-methoxybenzoyl)]-4N-[(4-propylphenyl)sulfonyl]piperazine]",,26.8 ± 20.2,% C4-2 cells in phase S at 25 μM (C4-2 cells [4]): 10.7%; % LNCaP cells in phase S at 25 μM (LNCaP cells [5]): 3%
"O=C(c1cscn1)N1CCN(S(=O)(=O)c2ccc(F)cc2F)CC1 [Example 37, 1N-[4-thiazolecarbonyl]-4-N-[(2,4-difluorophenyl)sulfonyl]piperazine]",,37 ± 7.8,
"COc1ccc(Br)c(C(=O)N2CCN(S(=O)(=O)c3ccc(F)cc3F)CC2)c1 [Example 12, 1N-[(2-bromo-5-methoxybenzoyl)]-4N-[(2, 4 difluorophenyl)sulfonyl]piperazine]",60.6,55.2 ± 0.5,Viable C4-2 cells at 25 μM (% of control) (C4-2 cells [2]): 70 % of control
COc1ccc(Br)c(C(=O)N2CCN(S(=O)(=O)c3ccc(OC(F)(F)F)cc3)CC2)c1 [Example 11],45.5,63 ± 4.1,Viable C4-2 cells at 25 μM (% of control) (C4-2 cells [2]): 74 % of control
"COc1ccc(Br)c(C(=O)N2CCN(S(=O)(=O)c3ccco3)CC2)c1 [Example 23, 1N-[(2-bromo-5-methoxybenzoyl)]-4N-[(2-furan)sulfonyl]piperazine]",,48 ± 14,
"COc1c(Br)cccc1C(=O)N1CCN(S(=O)(=O)c2ccc(F)cc2F)CC1 [Example 28, 1N-[(2-methoxy-3-bromobenzoyl)]-4-N-[(2,4-difluorophenyl)sulfonyl]piperazine]",,55.4 ± 14,
"COc1ccc(Br)c(C(=O)N2CCN(S(=O)(=O)c3cccc(F)c3)CC2)c1 [Example 15, 1N-[(2-bromo-5-methoxybenzoyl)]-4N-[(3-fluorophenyl)sulfonyl]piperazine]",0,35.7 ± 6,Viable C4-2 cells at 25 μM (% of control) (C4-2 cells [2]): 83 % of control
"COc1ccc(Br)c(C(=O)N2CCN(S(=O)(=O)c3c(F)cccc3F)CC2)c1 [Example 14, 1N-[(2-bromo-5-methoxybenzoyl)]-4N-[(2,6-difluorophenyl)sulfonyl]piperazine]",,0,
"COc1cccc(C(=O)N2CCN(S(=O)(=O)c3ccc(F)cc3F)CC2)c1 [Example 31, 1N-[(3-methoxybenzoyl)]-4-N-[(2,4-difluorophenyl)sulfonyl]piperazine]",,25.3 ± 6.1,
"O=C(c1ccsc1)N1CCN(S(=O)(=O)c2ccc(F)cc2F)CC1 [Example 36, 1N-[3-thiophenecarbonyl]-4-N-[(2,4-difluorophenyl)sulfonyl]piperazine]",,40 ± 7.6,
"COc1ccc(Br)c(C(=O)N2CCN(S(=O)(=O)c3ccc(Br)cc3)CC2)c1 [Example 17, 1N-[(2-bromo-5-methoxybenzoyl)]-4N-[(4-bromophenyl)sulfonyl]piperazine]",,67.6 ± 8.2,
"COc1ccc(S(=O)(=O)N2CCN(C(=O)c3cc(OC)ccc3Br)CC2)cc1 [Example 19, 1N-[(2-bromo-5-methoxybenzoyl)]-4N-[(4-methoxyphenyl)sulfonyl]piperazine]",,22.4 ± 7.7,
"COc1ccc(Br)c(C(=O)N2CCN(S(=O)(=O)Cc3ccccc3)CC2)c1 [Example 20, 1N-[(2-bromo-5-methoxybenzoyl)]-4N-[(phenylmethane)sulfonyl]piperazine]",16.8,46.3 ± 11.7,Viable C4-2 cells at 25 μM (% of control) (C4-2 cells [6]): 37 % of control
"COc1ccc(Br)c(C(=O)N2CCN(S(=O)(=O)c3ccc(C)cc3)CC2)c1 [Example 10, 1N-[(2-bromo-5-methoxybenzoyl)]-4N-[(4-methylphenyl)sulfonyl]piperazine]",0,0,Viable C4-2 cells at 25 μM (% of control) (C4-2 cells [6]): 59 % of control
"COc1ccc(Br)c(C(=O)N2CCN(S(=O)(=O)c3ccc(C(C)C)cc3)CC2)c1 [Example 16, 1N-[(2-bromo-5-methoxybenzoyl)]-4N-[(4-isopropylphenyl)sulfonyl]piperazine]",,75.4 ± 10.8,
"COc1ccc(Br)c(C(=O)N2CCN(S(=O)(=O)c3ccoc3)CC2)c1 [Example 24, 1N-[(2-bromo-5-methoxybenzoyl)]-4N-[(3-furan)sulfonyl]piperazine]",,28.4 ± 9.8,
